From patent US12404239B2, “Modulators of BCL6 as ligand directed degraders” (Celgene Corporation, priority 2022, dated 2025)

Biological target: T1, BCL6 (Homo sapiens, UniProt P41182)
T1 construct: HiBiT-tag knocked into endogenous BCL6 locus using CRISPR; endogenous in cells; host or cells: DHL-4_BCL6_HiBiT cells (CRISPR knock-in)
Experiment: BCL6_HiBiT degradation assay (2 h)
Assay type: cell-based
Conditions: DHL-4_BCL6_HiBiT cells, read-out: YCon (% remaining maximal effect)
Experimental: A DHL-4 cell line with HiBiT-tag knocked into endogenous BCL6 locus using CRISPR was generated. The DHL-4_BCL6_HiBiT cells were dispensed into 384-well plates (Corning no. 3570) that were pre-spotted with compounds. Compounds were dispensed by an acoustic dispenser (ATS acoustic transfer system from EDC Biosystems) into a 384-well plate in a 10-point dose response curve using 3-fold dilutions starting at 1-10 μM and going down to […]. 25 μL of media (RPMI-1640+10% heat inactivated FBS+1×Pen/Strep) containing 2500 of DHL-4 was dispensed per well. Assay plates were incubated at 37° C. with 5% CO2 for 2 hours. After incubation, 25 μL of the Nano-Glo HiBiT lytic detection working solution (Promega, catalogue no. N3040, Madison, WI) was added to each well and incubated at room temperature for 15-30 min, protected from light. After 30 min, luminescence was read on an Envision or PHERAstar luminescence reader. To determine the EC50 value (the half-maximum effective concentration) and the level of the gradation (Yconstant) of a BCL6 degrader, luminescent signal normalized by DMSO control (Y) and compound concentration (x) was fitted using a four-parameter dose-response model (Y=(A+((B−A)/1+((C/x)^D) in Dotmatics. Fitted value C is the degradation EC50 and the minimum value A is the Y constant.
The degradation of BCL6 at 2 h in DHL-4 results are shown in Table 5, where EC50 is the half maximal effect and Ycon is the % remaining maximal effect.

Row | SMILES | Percent BCL6 remaining at maximal degradation (Ycon) [%]
1 | C[C@@H]1CN(c2ncc(Cl)c(Nc3ccc4c(c3)CC(=O)N4CCCC(F)(F)F)n2)CC[C@H]1Nc1ccc2c(C3CCC(=O)NC3=O)nn(C)c2c1 (stereo partly drawn) [Example 119, 3-(6-(((3R,4R)-1-(5-chloro-4-((2-oxo-1-(4,4,4-trifluorobutyl)indolin-5-yl)amino)pyrimidin-2-yl)-3-methylpiperidin-4-yl)amino)-1-methyl-1H-indazol-3-yl)piperidine-2,6-dione] | < 20
2 | CN1C(=O)Cc2cc(Nc3nc(NC4CCN(c5ccc6c(C7CCC(=O)NC7=O)nn(C)c6c5)CC4)ncc3Cl)ccc21 (centres unmarked) [Example 40, 3-(6-(4-((5-Chloro-4-((1-methyl-2-oxoindolin-5-yl)amino)pyrimidin-2-yl)amino)piperidin-1-yl)-1-methyl-1H-indazol-3-yl)piperidine-2,6-dione] | > 60
3 | CN1C(=O)Cc2cc(Nc3nc(N4CC[C@@H](Nc5ccc6c(C7CCC(=O)NC7=O)nn(C)c6c5)[C@@H](CO)C4)ncc3Cl)ccc21 (stereo partly drawn) [Example 57, 3-[6-[[(3S,4R)-1-[5-Chloro-4-[(1-methyl-2-oxo-indolin-5-yl)amino]pyrimidin-2-yl]-3-(hydroxymethyl)-4-piperidyl]amino]-1-methyl-indazol-3-yl]piperidine-2,6-dione] | > 60
4 | CN1C(=O)Cc2cc(Nc3nc(N4CCN(c5ccc6c(C7CCC(=O)NC7=O)nn(C)c6c5)CC4)ncc3Cl)ccc21 (centres unmarked) [Example 35, 3-[6-[4-[5-chloro-4-[(1-methyl-2-oxo-indolin-5-yl)amino]pyrimidin-2-yl]piperazin-1-yl]-1-methyl-indazol-3-yl]piperidine-2,6-dione] | > 60
5 | CCN1C(=O)Cc2cc(Nc3nc(N4CCC(Nc5ccc6c(C7CCC(=O)NC7=O)nn(C)c6c5)CC4)ncc3Cl)ccc21 (centres unmarked) [Example 89, 3-(6-((1-(5-chloro-4-((1-ethyl-2-oxoindolin-5-yl)amino)pyrimidin-2-yl)piperidin-4-yl)amino)-1-methyl-1H-indazol-3-yl)piperidine-2,6-dione] | > 60
6 | C[C@H]1C[C@@H](N(C)c2ccc3c(C4CCC(=O)NC4=O)nn(C)c3c2)CCN1c1ncc(Cl)c(Nc2ccc3c(c2)CC(=O)N3C)n1 (stereo partly drawn) [Example 24, 3-(6-(((2S,4S)-1-(5-chloro-4-((1-methyl-2-oxoindolin-5-yl)amino)pyrimidin-2-yl)-2-methylpiperidin-4-yl)(methyl)amino)-1-methyl-1H-indazol-3-yl)piperidine-2,6-dione] | > 60
7 | Cc1nc(N2CC[C@@H](Nc3ccc4c(C5CCC(=O)NC5=O)nn(C)c4c3)[C@H](C)C2)nc(Nc2ccc3c(c2)CC(=O)N3C)c1Cl (stereo partly drawn) [Example 122, 3-(6-(((3R,4R)-1-(5-chloro-4-methyl-6-((1-methyl-2-oxoindolin-5-yl)amino)pyrimidin-2-yl)-3-methylpiperidin-4-yl)amino)-1-methyl-1H-indazol-3-yl)piperidine-2,6-dione] | < 20
8 | CN1C(=O)Cc2cc(Nc3nc(N(C)[C@H]4CC[C@H](Nc5ccc6c(C7CCC(=O)NC7=O)nn(C)c6c5)CC4)ncc3Cl)ccc21 (stereo partly drawn) [Example 3, 3-(6-(((trans)-4-((5-chloro-4-((1-methyl-2-oxoindolin-5-yl)amino)pyrimidin-2-yl)(methyl)amino)cyclohexyl)amino)-1-methyl-1H-indazol-3-yl)piperidine-2,6-dione] | > 60
9 | C[C@@H]1CN(c2ncc(C#N)c(Nc3ccc4c(c3)CC(=O)N4C)n2)CC[C@H]1Nc1ccc2c(N3CCC(=O)NC3=O)nn(C)c2c1 [Example 132, 2-((3R,4R)-4-((3-(2,4-dioxotetrahydropyrimidin-1(2H)-yl)-1-methyl-1H-indazol-6-yl)amino)-3-methylpiperidin-1-yl)-4-((1-methyl-2-oxoindolin-5-yl)amino)pyrimidine-5-carbonitrile] | < 20
10 | CC1CCN(c2ncc(Cl)c(Nc3ccc4c(c3)CC(=O)N4C)n2)CCC1Nc1ccc2c(C3CCC(=O)NC3=O)nn(C)c2c1 (single isomer, unassigned) [Example 48, 3-(6-((1-(5-chloro-4-((1-methyl-2-oxoindolin-5-yl)amino)pyrimidin-2-yl)-5-methylazepan-4-yl)amino)-1-methyl-1H-indazol-3-yl)piperidine-2,6-dione] | > 60
11 | C[C@@H]1CN(c2ncc(Cl)c(Nc3ccc4c(c3)CC(=O)N4CCN3CCOCC3)n2)CC[C@H]1Nc1ccc2c(C3CCC(=O)NC3=O)nn(C)c2c1 (stereo partly drawn) [Example 101, 3-(6-(((3R,4R)-1-(5-chloro-4-((1-(2-morpholinoethyl)-2-oxoindolin-5-yl)amino)pyrimidin-2-yl)-3-methylpiperidin-4-yl)amino)-1-methyl-1H-indazol-3-yl)piperidine-2,6-dione] | < 20
12 | CO[C@@H]1CN(c2ncc(C#N)c(Nc3ccc4c(c3)CC(=O)N4C)n2)CC[C@H]1Nc1ccc2c(N3CCC(=O)NC3=O)nn(C)c2c1 [Example 157, 2-((3R,4R)-4-((3-(2,4-dioxotetrahydropyrimidin-1(2H)-yl)-1-methyl-1H-indazol-6-yl)amino)-3-methoxypiperidin-1-yl)-4-((1-methyl-2-oxoindolin-5-yl)amino) pyrimidine-5-carbonitrile] | 20 to 60
13 | CN1C(=O)Cc2cc(Nc3nc(N4CCC(c5ccc6c(C7CCC(=O)NC7=O)nn(C)c6c5)CC4)ncc3Cl)ccc21 (centres unmarked) [Example 125, 3-(6-(1-(5-Chloro-4-((1-methyl-2-oxoindolin-5-yl)amino)pyrimidin-2-yl)piperidin-4-yl)-1-methyl-1H-indazol-3-yl)piperidine-2,6-dione] | > 60
14 | CN1C(=O)Cc2cc(Nc3nc(N(C)C4CC5CCC(C4)N5c4ccc5c(C6CCC(=O)NC6=O)nn(C)c5c4)ncc3Cl)ccc21 [Example 15, 3-(6-((1R,3s,5S)-3-((5-chloro-4-((1-methyl-2-oxoindolin-5-yl)amino)pyrimidin-2-yl)(methyl)amino)-8-azabicyclo[3.2.1]octan-8-yl)-1-methyl-1H-indazol-3-yl)piperidine-2,6-dione] | > 60
15 | CO[C@@H]1CN(c2ncc(C#N)c(Nc3ccc4c(c3)CC(=O)N4C)n2)CC[C@H]1Nc1ccc2c(C3(C)CCC(=O)NC3=O)nn(C)c2c1 (stereo partly drawn) [Example 155, 2-((3R,4R)-3-methoxy-4-((1-methyl-3-(3-methyl-2,6-dioxopiperidin-3-yl)-1H-indazol-6-yl)amino)piperidin-1-yl)-4-((1-methyl-2-oxoindolin-5-yl)amino) pyrimidine-5-carbonitrile] | 20 to 60
16 | CN1C(=O)Cc2cc(Nc3nc(NC4CCN(c5ccc6c(C7CCC(=O)NC7=O)nn(C)c6c5)C(=O)C4)ncc3Cl)ccc21 (centres unmarked) [Example 126, 3-(6-(4-((5-chloro-4-((1-methyl-2-oxoindolin-5-yl)amino)pyrimidin-2-yl)amino)-2-oxopiperidin-1-yl)-1-methyl-1H-indazol-3-yl)piperidine-2,6-dione] | 20 to 60
17 | C[C@@H]1CN(c2ncc(Cl)c(Nc3ccc4c(c3)CC(=O)N4C)n2)CC[C@@H]1Nc1ccc2c(C3CCC(=O)NC3=O)nn(C)c2c1 (stereo partly drawn) [Example 12, 3-(6-{[(3R,4S)-1-{5-chloro-4-[(1-methyl-2-oxo-2,3-dihydro-1H-indol-5-yl)amino]pyrimidin-2-yl}-3-methylpiperidin-4-yl]amino}-1-methyl-1H-indazol-3-yl)piperidine-2,6-dione] | < 20
